Experimental data published in US8460868B2, “Genetic markers for schizophrenia and bipolar disorder” (priority 2007, dated 2013).

Columns and labels:
[1] = test system: patients with schizophrenia; assay: CATIE trial side effects (discontinued for safety concerns, COMPEFF score 5) by HPCAL1/SV2C genotype; format: in vivo, human; settings: for OR vs. Low / OR vs. baseline: side effects; for OR vs. Low: vs low scoring genotype(s); for OR vs. baseline: vs sample not segmented by genotype
Protocol: (§1) The Clinical Antipsychotic Trials of Intervention Effectiveness (CATIE), a large federally funded clinical trial designed to assess the efficacy of antipsychotics in a real world setting, is a valuable resource for determining the role of genes in drug response (Stroup et al., Schizophr. Bull. 29:15-31 (2003); Lieberman et al., N. Engl. J. […] As part of the CATIE trial SNP genotyping was performed for roughly half of the trial participants (Sullivan et al., Mol. Psychiatry 13:570-584 (2008)). […] The design of the CATIE study has been described in detail by others (Stroup et al., Schizophr. Bull. 29:15-31 (2003); Lieberman et al., N. Engl. J. […] A total of 738 subjects consented to provide DNA for genetic study. […] Genotype and phenotype data for the CATIE trial were made available to qualified researchers through The NIMH Center for Collaborative Genetic Studies on Mental Disorders. For reduction to practice, we evaluated data for 417 patients with schizophrenia self reported as having exclusively European ancestry. […] Golden Helix, Bozeman, Mont.). To generate a P value, HelixTree calculates analysis of deviance (a likelihood ratio statistic) that compares the observed contingency table vs. an expected contingency table created with all the possible variations of the genetic model. […] The standard FDA registration trial definition of response of >20% decrease in Positive and Negative Syndrome Scale (PANSS Total Score) was used to assign subjects to a response category. […] Bull. 29:73-80 (2003)). […] The tables report odds ratios relative to the baseline values (sample not segmented by genotype) and relative to values for the low scoring, mutually exclusive genotype(s).

[2] = test system: patients with schizophrenia; assay: CATIE trial drug response (>20% decrease in PANSS Total Score) by HPCAL1/SV2C genotype; format: in vivo, human; settings: for Response frequency: CATIE Phase 1; for OR vs. Low / OR vs. baseline: response; for OR vs. Low: vs low scoring genotype(s); for OR vs. baseline: vs sample not segmented by genotype
Protocol: as §1

[3] = HPCAL1 rs11679891 genotype A/C, C/C (C)
[4] = HPCAL1 rs13033617 genotype C/C (C)
[5] = SV2C rs6453205 genotype C/C (C)
[6] = HPCAL1 rs11679891 genotype C/C (C)
[7] = SV2C rs4610441 genotype C/C (C)
[8] = SV2C rs10064352 genotype T/T (T)
[9] = SV2C rs10474464 genotype C/C (C)
[10] = SV2C rs12152728 genotype C/C (C)
[11] = HPCAL1 rs7571627 genotype T/T (T)
[12] = SV2C rs12522597 genotype G/G, A/G (G)

For `OCCN1CCN(CCCN2c3ccccc3Sc3ccc(Cl)cc32)CC1` [perphenazine], the “Frequency Study ending side effects” value [1, 3] was 0.19, the “OR vs. Low” value [1, 3] was over 10 and the OR vs. baseline [1, 3] was 1.44. For the same compound, the “Frequency Study ending side effects” value [1, 4] was 0.27, the “OR vs. Low” value [1, 4] was 3.74 and the OR vs. baseline [1, 4] was 2.27. The Response frequency [2, 5] was 0.7, the “OR vs. Low” value [2, 5] was 3.36 and the OR vs. baseline [2, 5] was 2.43.

`OCCOCCN1CCN(C2=Nc3ccccc3Sc3ccccc32)CC1` [quetiapine] showed a Response frequency [2, 6] of 0.6, an OR vs. baseline [2, 6] of 3.05 and a Response frequency [2, 7] of 0.6. For the same compound, the OR vs. baseline [2, 7] was 3.05, the Response frequency [2, 8] was 0.6 and the “OR vs. Low” value [2, 8] was 3.67. It also gave an OR vs. baseline [2, 8] of 3.05, a Response frequency [2, 9] of 0.6 and an OR vs. baseline [2, 9] of 3.05. The Response frequency [2, 10] was 0.5, the “OR vs. Low” value [2, 10] was 2.70 and the OR vs. baseline [2, 10] was 2.03.

`Cc1nc2n(c(=O)c1CCN1CCC(c3noc4cc(F)ccc34)CC1)CCCC2` [risperidone] gave a Response frequency ([2]; SV2C rs4704297 genotype C/C, C/G (C)) of 0.45.

With `O=C1Cc2cc(CCN3CCN(c4nsc5ccccc45)CC3)c(Cl)cc2N1` [ziprasidone] the “Frequency Study ending side effects” value [1, 11] was 0.33, the “OR vs. Low” value [1, 11] was 4.98 and the OR vs. baseline [1, 11] was 1.56. The “Frequency Study ending side effects” value ([1]; SV2C rs246812 genotype A/A (A)) was 0.5, the “OR vs. Low” value ([1]; SV2C rs246812 genotype A/A (A)) was 6.14 and the OR vs. baseline ([1]; SV2C rs246812 genotype A/A (A)) was 3.17. The Response frequency [2, 12] was 0.55, the “OR vs. Low” value [2, 12] was 9.89 and the OR vs. baseline [2, 12] was 1.49.
